Measurements taken from patent US20250268903A1, “RXFP1 AGONISTS” (BRISTOL-MYERS SQUIBB COMPANY, priority 2021, published 2025).

Target: T1, human RXFP1 (Homo sapiens, UniProt Q9HBX9)
T1 construct: expressed in transfected cells
T1 sequence (Q9HBX9 1-757): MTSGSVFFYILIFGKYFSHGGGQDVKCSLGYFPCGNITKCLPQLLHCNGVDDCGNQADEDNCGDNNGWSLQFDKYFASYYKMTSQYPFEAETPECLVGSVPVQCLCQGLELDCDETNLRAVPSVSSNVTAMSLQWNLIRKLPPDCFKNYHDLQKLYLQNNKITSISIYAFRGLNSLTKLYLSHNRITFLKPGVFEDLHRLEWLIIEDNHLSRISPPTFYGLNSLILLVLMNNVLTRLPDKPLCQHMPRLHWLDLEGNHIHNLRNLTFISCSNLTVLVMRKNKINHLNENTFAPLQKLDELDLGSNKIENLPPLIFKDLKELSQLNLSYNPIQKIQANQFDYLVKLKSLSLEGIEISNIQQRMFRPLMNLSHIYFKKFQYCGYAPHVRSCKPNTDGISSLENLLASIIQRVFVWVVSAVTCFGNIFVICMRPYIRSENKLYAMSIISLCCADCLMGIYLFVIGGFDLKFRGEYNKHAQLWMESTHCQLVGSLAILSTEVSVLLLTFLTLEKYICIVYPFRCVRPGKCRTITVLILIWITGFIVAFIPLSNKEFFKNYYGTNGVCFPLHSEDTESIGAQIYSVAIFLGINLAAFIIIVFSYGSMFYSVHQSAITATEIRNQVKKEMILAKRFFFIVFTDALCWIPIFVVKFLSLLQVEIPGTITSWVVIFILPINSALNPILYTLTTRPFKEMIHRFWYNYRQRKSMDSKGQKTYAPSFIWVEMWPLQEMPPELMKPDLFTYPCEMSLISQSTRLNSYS
Assay: hRXFP1 HEK293 cAMP assay (HTRF)
Format: cell-based
Settings: HEK293 cells stably expressing human RXFP1, 30 min at room temperature
In short: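 hRXFP1-HEK293 stable line; HBSS + Ca/Mg, 20 mM HEPES, 0.05% BSA, 0.5 mM IBMX; cpd 0.010 nM–50 μM, 2% DMSO; 30 min RT; lysis, HTRF cAMP detection; 4-PL fit.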

SMILES | EC50
COc1ccc(CCCNC(=O)C2CCOCC2)cc1C(=O)N[C@@H]1C2CCC(/C2=C/C(F)(F)F)[C@@H]1C(=O)Nc1ccc(F)c(C(F)(F)F)c1 (stereo partly drawn) [Example 115, N-[3-(3-{[(2R,3S,7Z)-3-{[4-fluoro-3-(trifluoromethyl)phe-nyl]carbamoyl}-7-(2,2,2-trifluoroethylidene)bi-cyclo[2.2.1]heptan-2-yl]carbamoyl}-4-methoxyphenyl)pro-pyl]oxane-4-carboxamide] | 536 nM
COc1ccc(CCCNCC(O)(C(F)(F)F)C(F)(F)F)cc1C(=O)N[C@H]1[C@@H](C(=O)Nc2ccc(F)c(C(F)(F)F)c2)[C@H]2CC[C@@H]1/C2=C\C(F)(F)F [Example 117, (1R,2S,3R,4R,Z)—N-(4-fluoro-3-(trifluoromethyl)phenyl)-3-(2-methoxy-5-(3-((3,3,3-trifluoro-2-hydroxy-2-(trifluoromethyl)propyl)amino)propyl)benzamido)-7-(2,2,2-trifluoroethylidene) bicyclo[2.2.1]heptane-2-carboxamide] | 1240 nM
COc1ccc(CCCNC[C@H](O)C(F)(F)F)cc1C(=O)N[C@@H]1C2CCC(/C2=C/C(F)(F)F)[C@@H]1C(=O)Nc1ccc(F)c(C(F)(F)F)c1 (stereo partly drawn) [Example 118, (2S,3R,7Z)-N-[4-fluoro-3-(trifluoromethyl)phe-nyl]-3-[2-methoxy-5-(3-{[(2S)-3,3,3-trifluoro-2-hydroxypropyl]amino}propyl)benzamido]-7-(2,2,2-trifluoroethylidene)bi-cyclo[2.2.1]heptane-2-carboxamide] | 1780 nM
COc1ccc(CCCNC[C@@H](O)C(F)(F)F)cc1C(=O)N[C@@H]1C2CCC(/C2=C/C(F)(F)F)[C@@H]1C(=O)Nc1ccc(F)c(C(F)(F)F)c1 (stereo partly drawn) [Example 119, (2S,3R,7Z)-N-[4-fluoro-3-(trifluoromethyl)phe-nyl]-3-[2-methoxy-5-(3-{[(2R)-3,3,3-trifluoro-2-hydroxypropyl]amino}propyl)benzamido]-7-(2,2,2-trifluoroethylidene)bi-cyclo[2.2.1]heptane-2-carboxamide] | 1800 nM
COc1ccc(CCCN(C(=O)OC(C)(C)C)C2CCC2)cc1C(=O)N[C@@H]1C2CCC(/C2=C/C(F)(F)F)[C@@H]1C(=O)Nc1ccc(F)c(C(F)(F)F)c1 (some centres unmarked) [Example 120] | 304 nM
COc1ccc(CCCN2CCOCC2)cc1C(=O)N[C@@H]1C2CCC(/C2=C/C(F)(F)F)[C@@H]1C(=O)Nc1ccc(F)c(C(F)(F)F)c1 (stereo partly drawn) [Example 121, (2S,3R,7Z)-N-[4-fluoro-3-(trifluoromethyl)phe-nyl]-3-{2-methoxy-5-[3-(morpholin-4-yl)propyl]benzamido}-7-(2,2,2-trifluoroethylidene)bi-cyclo[2.2.1]heptane-2-carboxamide] | 1070 nM
COc1ccc(CCCn2cc(-c3ccccc3)nn2)cc1C(=O)N[C@@H]1C2CCC(/C2=C/C(F)(F)F)[C@@H]1C(=O)Nc1ccc(F)c(C(F)(F)F)c1 (some centres unmarked) [Example 123] | 1270 nM
COc1ccc(/C=C/C(=O)N2CCC(O)CC2)cc1C(=O)N[C@@H]1C2CCC(/C2=C/C(F)(F)F)[C@@H]1C(=O)Nc1ccc(F)c(C(F)(F)F)c1 (stereo partly drawn) [Example 125, (2S,3R,7Z)-N-[4-fluoro-3-(trifluoromethyl)phe-nyl]-3-{5-[(1E)-3-(4-hydroxypiperidin-1-yl)-3-oxoprop-1-en-1-yl]-2-methoxybenzamido}-7-(2,2,2-trifluoroethylidene)bi-cyclo[2.2.1]heptane-2-carboxamide] | 13 nM
COc1ccc(/C=C/C(=O)N(C)CCO)cc1C(=O)N[C@@H]1C2CCC(/C2=C/C(F)(F)F)[C@@H]1C(=O)Nc1ccc(F)c(C(F)(F)F)c1 (stereo partly drawn) [Example 126, (2S,3R,7Z)-N-[4-fluoro-3-(trifluoromethyl)phe-nyl]-3-{5-[(1E)-2-[(2-hydroxyethyl)(meth-yl)carbamoyl]eth-1-en-1-yl]-2-methoxybenzamido}-7-(2,2,2-trifluoroethylidene)bi-cyclo[2.2.1]heptane-2-carboxamide] | 35 nM
COc1ccc(/C=C/C(=O)N[C@H]2C[C@H](O)C2)cc1C(=O)N[C@@H]1C2CCC(/C2=C/C2CC2)[C@@H]1C(=O)Nc1ccc(F)c(C(F)(F)F)c1 (stereo partly drawn) [Example 127, (2S,3R,7Z)-7-(cyclopropylmethyli-dene)-N-[4-fluoro-3-(trifluoromethyl)phe-nyl]-3-{2-methoxy-5-[(1E)-2-{[(1r,3r)-3-hydroxycyclobutyl]carbamoyl}eth-1-en-1-yl]benzamido}bicyclo [2.2.1]heptane-2-carboxamide] | 74 nM

Further lines, results first:

EC50 | SMILES
2520 nM | COc1ccc(CCCN)cc1C(=O)N[C@H]1[C@@H](C(=O)Nc2ccc(F)c(C(F)(F)F)c2)[C@H]2CC[C@@H]1/C2=C\C(F)(F)F [Example 110, (1R,2S,3R,4R,Z)-3-(5-(3-aminopropyl)-2-methoxybenzamido)-N-(4-fluoro-3-(trifluoromethyl)phenyl)-7-(2,2,2-trifluoroethylidene) bicyclo[2.2.1]heptane-2-carboxamide]
106 nM | COc1ccc(CCCNC(=O)[C@@H](C)O)cc1C(=O)N[C@H]1[C@@H](C(=O)Nc2ccc(F)c(C(F)(F)F)c2)[C@H]2CC[C@@H]1/C2=C\C(F)(F)F [Example 111, (1R,2S,3R,4R,Z)—N-(4-fluoro-3-(trifluoromethyl)phenyl)-3-(5-(3-((R)-2-hydroxypropanamido)propyl)-2-methoxybenzamido)-7-(2,2,2-trifluoroethylidene) bicyclo[2.2.1]heptane-2-carboxamide]
324 nM | COc1ccc(CCCNC(=O)C2CCC2)cc1C(=O)N[C@@H]1C2CCC(/C2=C/C(F)(F)F)[C@@H]1C(=O)Nc1ccc(F)c(C(F)(F)F)c1 (stereo partly drawn) [Example 112, (2S,3R,7Z)-3-{5-[3-(cyclobutylformami-do)propyl]-2-methoxybenzamido}-N-[4-fluoro-3-(trifluoromethyl)phe-nyl]-7-(2,2,2-trifluoroethylidene)bi-cyclo[2.2.1]heptane-2-carboxamide]
341 nM | COc1ccc(CCCNC(=O)C(C)(C)O)cc1C(=O)N[C@@H]1C2CCC(/C2=C/C(F)(F)F)[C@@H]1C(=O)Nc1ccc(F)c(C(F)(F)F)c1 (stereo partly drawn) [Example 113, (2S,3R,7Z)-N-[4-fluoro-3-(trifluoromethyl)phe-nyl]-3-{5-[3-(2-hydroxy-2-methylpropanamido)propyl]-2-methoxybenzamido}-7-(2,2,2-trifluoroethylidene)bi-cyclo[2.2.1]heptane-2-carboxamide]
457 nM | COc1ccc(CCCNC(=O)[C@H](C)O)cc1C(=O)N[C@@H]1C2CCC(/C2=C/C(F)(F)F)[C@@H]1C(=O)Nc1ccc(F)c(C(F)(F)F)c1 (some centres unmarked) [Example 114]
940 nM | COc1ccc(CCCNC(=O)CO)cc1C(=O)N[C@@H]1C2CCC(/C2=C/C(F)(F)F)[C@@H]1C(=O)Nc1ccc(F)c(C(F)(F)F)c1 (stereo partly drawn) [Example 116, (2S,3R,7Z)-N-[4-fluoro-3-(trifluoromethyl)phe-nyl]-3-{5-[3-(2-hydroxyacetamido)pro-pyl]-2-methoxybenzamido}-7-(2,2,2-trifluoroethylidene)bi-cyclo[2.2.1]heptane-2-carboxamide]
2810 nM | COc1ccc(CCCNC2CCC2)cc1C(=O)N[C@@H]1C2CCC(/C2=C/C(F)(F)F)[C@@H]1C(=O)Nc1ccc(F)c(C(F)(F)F)c1 (stereo partly drawn) [Example 122, (2S,3R,7Z)-3-{5-[3-(cyclobutylamino)pro-pyl]-2-methoxybenzamido}-N-[4-fluoro-3-(trifluoromethyl)phe-nyl]-7-(2,2,2-trifluoroethylidene)bi-cyclo[2.2.1]heptane-2-carboxamide]
